Reference: ChEMBL document CHEMBL3885861, “Open TG-GATES”

Species on record: Rattus norvegicus
Assay: Open TG-GATES - Regimen: Single
Type: toxicity, organism-based, Sprague-Dawley
Design: regimen Single, gender Male, age 6 weeks
Conditions: in vivo, iv, 0 mg/kg, route intravenous injection, dose level Control; for APTT / Bas / Eos / Fbg / Hb / Ht / Lym / MCH / MCHC / MCV / Mono / Neu / PT / Plat / RBC / Ret / WBC: tissue Blood; for KIDNEY_L / KIDNEY_R / KIDNEY_TOTAL: tissue Kidney; for LIVER: tissue Liver; for A/G / ALP / ALT / AST / BUN / CRE / Ca / Cl / DBIL / GLC / IP / K / LDH / Na / PL / RALB / TBIL / TC / TG / TP / gamma-GTP: tissue Plasma

NCCBr [BROMOETHANAMINE]
TERMINAL_BW (9 h): 218.3 g | APTT (9 h): 22.5 s | Bas (9 h): 0% | Eos (9 h): 0.8% | Fbg (9 h): 317.8 mg/dL | Hb (9 h): 13.3 g/dL | Ht (9 h): 39% | Lym (9 h): 78.6% | MCH (9 h): 21.3 pg | MCHC (9 h): 34% | MCV (9 h): 62.7 fL | Mono (9 h): 2% | Neu (9 h): 18% | PT (9 h): 16.3 s | Plat (9 h): 128.4 x10_4/uL | RBC (9 h): 623.8 x10_4/ul | Ret (9 h): 6.4% | WBC (9 h): 84.9 x10_2/uL | KIDNEY_L (9 h): 0.9 g | KIDNEY_R (9 h): 1 g | KIDNEY_TOTAL (9 h): 1.9 g | LIVER (9 h): 9.1 g | A/G (9 h): 1.2 | ALP (9 h): 1721.2 IU/L | ALT (9 h): 33.4 IU/L | AST (9 h): 64.6 IU/L | BUN (9 h): 13.6 mg/dL | CRE (9 h): 0.2 mg/dL | Ca (9 h): 10.4 mg/dL | Cl (9 h): 106.4 meq/L | DBIL (9 h): 0.002 mg/dL | GLC (9 h): 188.8 mg/dL | IP (9 h): 9.6 mg/dL | K (9 h): 4.2 meq/L | LDH (9 h): 152.6 IU/L | Na (9 h): 140.6 meq/L | PL (9 h): 124.4 mg/dL | RALB (9 h): 2.9 g/dL | TBIL (9 h): 0.022 mg/dL | TC (9 h): 68.8 mg/dL | TG (9 h): 63.4 mg/dL | TP (9 h): 5.4 g/dL | gamma-GTP (9 h): 1.6 IU/L | TERMINAL_BW (24 h): 226.9 g | APTT (24 h): 21.5 s | Bas (24 h): 0% | Eos (24 h): 0.8% | Fbg (24 h): 316.6 mg/dL | Hb (24 h): 13.6 g/dL | Ht (24 h): 39.1% | Lym (24 h): 79.2% | MCH (24 h): 21.2 pg | MCHC (24 h): 34.7% | MCV (24 h): 61.1 fL | Mono (24 h): 2.6% | Neu (24 h): 16.2% | PT (24 h): 16.4 s | Plat (24 h): 126.9 x10_4/uL | RBC (24 h): 640.8 x10_4/ul | Ret (24 h): 5.5% | WBC (24 h): 103.5 x10_2/uL | KIDNEY_L (24 h): 1 g | KIDNEY_R (24 h): 1 g | KIDNEY_TOTAL (24 h): 2 g | LIVER (24 h): 10.4 g | A/G (24 h): 1.1 | ALP (24 h): 1595.2 IU/L | ALT (24 h): 41.4 IU/L | AST (24 h): 71 IU/L | BUN (24 h): 18 mg/dL | CRE (24 h): 0.2 mg/dL | Ca (24 h): 10.8 mg/dL | Cl (24 h): 106 meq/L | DBIL (24 h): 0 mg/dL | GLC (24 h): 191.6 mg/dL | IP (24 h): 6.8 mg/dL | K (24 h): 4.9 meq/L | LDH (24 h): 222.8 IU/L | Na (24 h): 140.6 meq/L | PL (24 h): 147.6 mg/dL | RALB (24 h): 2.9 g/dL | TBIL (24 h): 0.006 mg/dL | TC (24 h): 75.8 mg/dL | TG (24 h): 134.2 mg/dL | TP (24 h): 5.5 g/dL | gamma-GTP (24 h): 2 IU/L
